Experimental data: ChEMBL document CHEMBL1136993, “Efficient chemoenzymatic synthesis, cytotoxic evaluation, and SAR of epoxysterols” (J Med Chem, 2009)

How the values were obtained:
HT-29 = test: Cytotoxicity against human HT-29 cells after 48 hrs by Alamar Blue assay; type: functional, cell-based; conditions: HT-29, 48 h
BJ = test: Cytotoxicity against human BJ cells after 48 hrs by Alamar Blue assay; type: cell-based
LAMA-84 = test: Cytotoxicity against human LAMA-84 cells after 48 hrs by Alamar Blue assay; type: functional, cell-based; conditions: LAMA-84, 48 h

## CC(C)CCC[C@@H](C)[C@H]1CC[C@H]2[C@@H]3CC[C@@]45O[C@@H]4[C@@H](O)CC[C@]5(C)[C@H]3CC[C@]12C
HT-29
  IC50: 61.9 µM

## CC(C)CCC[C@@H](C)[C@H]1CC[C@H]2[C@@H]3CC[C@]45O[C@H]4[C@@H](O)CC[C@]5(C)[C@H]3CC[C@]12C
BJ
  IC50: 31.4 µM
LAMA-84
  IC50: 11.2 µM
HT-29
  IC50: 22.6 µM

## CC(C)CCC[C@@H](C)[C@H]1CC[C@H]2[C@@H]3[C@@H]4O[C@@]45C[C@@H](O)CC[C@]5(C)[C@H]3CC[C@]12C
HT-29
  IC50: 40.9 µM

## CC(C)CCC[C@@H](C)[C@H]1CC[C@H]2[C@@H]3C[C@@H]4O[C@@]45[C@@H](O)[C@@H](O)CC[C@]5(C)[C@H]3CC[C@]12C
HT-29
  IC50: 38.2 µM

## CC(C)CCC[C@@H](C)[C@H]1CC[C@H]2[C@@H]3C[C@H]4O[C@]45[C@@H](O)[C@@H](O)CC[C@]5(C)[C@H]3CC[C@]12C
BJ
  IC50: 20.4 µM
LAMA-84
  IC50: 8 µM
HT-29
  IC50: 17.7 µM

## CC(C)CCC[C@@H](C)[C@H]1CC[C@H]2[C@@H]3[C@H](O)C=C4C[C@@H](O)CC[C@]4(C)[C@H]3CC[C@]12C
HT-29
  IC50: 15.5 µM

## CC(C)CCC[C@@H](C)[C@H]1CC[C@H]2[C@@H]3[C@H](O)[C@@H]4O[C@@]45C[C@@H](O)CC[C@]5(C)[C@H]3CC[C@]12C
HT-29
  IC50: 33.8 µM

## CC(C)CCC[C@@H](C)[C@H]1CC[C@H]2[C@@H]3CC=C4[C@@H](O)[C@@H](O)CC[C@]4(C)[C@H]3CC[C@]12C
HT-29
  IC50: > 50 µM

## CC(C)CCC[C@@H](C)[C@H]1CC[C@H]2[C@@H]3C[C@@H]4O[C@@]45C[C@@H](O)CC[C@]5(C)[C@H]3CC[C@]12C
HT-29
  IC50: > 50 µM

## CC(C)CCC[C@@H](C)[C@H]1CC[C@H]2[C@@H]3C[C@H]4O[C@]45C[C@@H](O)CC[C@]5(C)[C@H]3CC[C@]12C
HT-29
  IC50: 37.6 µM

## CC(C)CCC[C@@H](C)[C@H]1CC[C@H]2[C@@H]3[C@@H](O)[C@H]4O[C@]45C[C@@H](O)CC[C@]5(C)[C@H]3CC[C@]12C
BJ
  IC50: 19.5 µM
LAMA-84
  IC50: 7 µM
HT-29
  IC50: 8.3 µM

## CC(C)CCC[C@@H](C)[C@H]1CC[C@H]2[C@@H]3[C@@H](O)C=C4C[C@@H](O)CC[C@]4(C)[C@H]3CC[C@]12C
BJ
  IC50: 20.1 µM
LAMA-84
  IC50: 4.8 µM
HT-29
  IC50: 6.4 µM

## CC(C)CCC[C@@H](C)[C@H]1CC[C@H]2[C@@H]3[C@@H](O)[C@@H]4O[C@@]45C[C@@H](O)CC[C@]5(C)[C@H]3CC[C@]12C
BJ
  IC50: 13.4 µM
LAMA-84
  IC50: 4.1 µM
HT-29
  IC50: 13.3 µM

## CC(C)CCC[C@@H](C)[C@H]1CC[C@H]2[C@@H]3CCC4=C[C@@H](O)CC[C@]4(C)[C@H]3CC[C@]12C
HT-29
  IC50: > 50 µM

## CC(=O)O[C@H]1CC[C@]2(C)[C@H]3CC[C@]4(C)[C@@H]([C@H](C)CCCC(C)C)CC[C@H]4[C@@H]3C[C@H]3O[C@]32[C@H]1O
HT-29
  IC50: 28.2 µM

## CC(=O)O[C@H]1[C@@H](O)CC[C@]2(C)[C@H]3CC[C@]4(C)[C@@H]([C@H](C)CCCC(C)C)CC[C@H]4[C@@H]3C[C@H]3O[C@@]312
LAMA-84
  IC50: 8.1 µM
HT-29
  IC50: 15.9 µM

## CC(=O)O[C@H]1CC[C@@]2(C)C(=C[C@H](O)[C@H]3[C@@H]4CC[C@H]([C@H](C)CCCC(C)C)[C@@]4(C)CC[C@@H]32)C1
HT-29
  IC50: 29.4 µM

## CC(C)CCC[C@@H](C)[C@H]1CC[C@H]2[C@@H]3CC=C4C[C@@H](O)CC[C@]4(C)[C@H]3CC[C@]12C [CHOLESTEROL]
HT-29
  IC50: > 50 µM

## COc1cccc2c1C(=O)c1c(O)c3c(c(O)c1C2=O)C[C@@](O)(C(=O)CO)C[C@@H]3O[C@H]1C[C@H](N)[C@H](O)[C@H](C)O1 [DOXORUBICIN]
BJ
  IC50: 2.7 µM
LAMA-84
  IC50: 0.76 µM
HT-29
  IC50: 1.15 µM
